In PMC5995184, “Potent anti-leukemic activity of a specific cyclin-dependent kinase 9 inhibitor in mouse models of chronic lymphocytic leukemia” (Oncotarget, 2018):
Where two headings read alike, the source gives them in different places.

System: primary CLL cells (CLL PBMC)
Test: Primary CLL cells apoptosis, viability, MCL-1/BCL-2 (flow cytometry)
Assay type: cell-based, human
Settings: for IC50: Homo sapiens, CLL cell, read-out: IC50, absolute number of viable CLL PBMC
Protocol: The MEC-1 cell line was obtained from the DSMZ (Braunschweig, Germany) and was cultured in RPMI (10% fetal bovine serum). A LDC526 stock solution was prepared with DMSO, diluted and added to the cultures to reach the specified concentrations. Samples (percentage of CD19+CD5+ CLL cells >90%) of n=37 CLL patients (Table 1) and n=6 healthy normal donor controls were used for experiments after obtaining informed consent according to institutional guidelines, approved by the Ethics Commission of the University of Essen-Duisburg. Peripheral blood mononuclear cells (PBMC) were isolated using Lymphoprep ([…] Technologies, Cologne, Germany) density gradient centrifugation and were used directly for NSG transplantation or in vitro experiments. Untouched normal donor B cells were isolated with a B cell isolation kit (Miltenyi, Bergisch Gladbach, Germany) according to the manufacturer’s instructions. For in vitro experiments, cells were maintained in RPMI supplemented with 10% fetal bovine serum, penicillin and streptomycin.
Apoptosis and cell death were determined by using Annexin V (BD Biosciences, Heidelberg, Germany) and 4′,6-Diamidin-2-phenylindol (DAPI, Sigma-Aldrich) staining. Erythrocytes of murine peripheral blood samples were lysed with NH4Cl hypotonic solution. Single cell suspensions of murine spleens were prepared as previously described. Murine cells were stained with antibodies directed against murine CD3 (clone 145-2C11), CD5 (53-7.3) and CD19 (1D3), respectively. For the detection of human cells in NSG spleens antibodies against human CD3 (clone SK7), CD4 (SK3), CD5 (L17F12), CD8 (SK1), CD19 (J3-119 or SJ25C1) and CD45 (2D1) were used (purchased from BD Bioscience, Biolegend and Beckman Coulter). Flow cytometric analysis was carried out on a LSRII flow cytometer (BD Biosciences, Heidelberg, Germany). Flow cytometric data were analyzed with BD FACSDiva or FlowJo software (FLOWJO, LLC, Ashland, OR, USA). Intracellular staining for MCL-1 and BCL-2 (anti-MCL-1 [clone D2W9E, Cell Signaling Technology, Leiden, The Netherlands] and matched isotype control [clone DA1E, Cell Signaling Technology]; anti-BCL-2 [clone Bcl-2/100, BD Bioscience] and matched isotype control [clone MOPC-21, BD Bioscience]) within MEC-1 and primary CLL cells was performed with the FoxP3 / Transcription factor staining buffer set (eBioscience/Thermo Fisher Scientific, Dreieich, Germany) according to the manufacturer’s instructions. Before permeabilization and antibody incubation cells were stained with a fixable viability dye (eFluor 450, eBioscience/Thermo Fisher Scientific). Before adding the anti-MCL-1 and anti-BCL-2 antibodies permeabilized cells were blocked with 2% mouse serum and 2% rabbit serum (Sigma-Aldrich) in permeabilization buffer. Intracellullar murine lymphocyte staining for Bcl-2 was carried out with the BD Cytofix/Cytoperm kit according to the manufacturer’s instructions. A Hamster Anti-mouse Bcl-2 (clone 3F119, BD Biosciences) and a corresponding isotype control (clone A19-3) were used. Dead cells and doublets were excluded by and FSC/SSC gating and positive DAPI or eFluor 450 viability dye staining, respectively. To assess the impact of LDC526 on the cell-cycle status of MEC-1 cells we used the BrdU Flow Kit according to the manufacturer’s protocol (BD Bioscience). BrdU was added to the media 30 minutes before commencing the analysis.
Data were analyzed with GraphPad Prism 7 software. Differences were assessed by unpaired or paired Student t tests if not indicated otherwise. Two-sided probabilities of less than 0.05 were considered significant. Nonlinear regression sigmoidal dose-response curve fit was used to determine the IC50 values and to generate graphs.

[1] = 4 hours, increasing concentrations

SMILES: COc1cc(F)ccc1-c1ncnc(Nc2cccc(CS(N)(=O)=O)c2)n1 [LDC526, (3-((4-(4-fluoro-2-methoxyphenyl)-1,3,5-triazin-2-yl)amino)phenyl)methane-sulfonamide]
- apoptosis of primary CLL PBMCs (Annexin V) (4 hours, 500 and 1000 nM): significantly increased percentages of apoptosis
- BCL-2 levels in primary CLL cells [1]: not significantly altered
- MCL-1 protein levels in primary CLL cells [1]: significantly decreased MCL-1 protein levels
- IC50 (24 hours incubation): 0.34 µM
- IC50 (48 hours incubation): 0.28 µM
- LDC526-induced effect between prognostic CLL subgroups (FISH, CD38, Binet, therapy) (high-risk versus low-risk): no statistically significant differences
